{"source": "patent US20260188423A1", "about": "“IDENTIFICATION OF CELL SURFACE ANTIGENS WHICH INDUCE T-CELL RESPONSES AND THEIR USES” (priority 2022, published 2026)", "key": {"[1]": {"tested_on": "HeLa cells", "assay": "Cellular uptake of fluorescent-labeled peptide vaccines, fluorescent microscopy", "assay_type": "cell-based, human", "method": "Methods: In this experiment, the uptake of two fluorescent-labeled peptide vaccines was examined using a fluorescent microscope in cultured cells. HeLa cells were grown on cover slides for one day and then treated with peptide vaccines. Cells were fixed with 4% paraformaldehyde, washed with PBS, and analyzed with fluorescent microscopy."}, "[2]": {"tested_on": "Monocyte-derived dendritic cells", "assay_type": "cell-based, human"}, "[3]": {"tested_on": "peritoneal tumour biopsies", "assay": "Transcriptome analysis of the Murcia patient's peritoneal tumour biopsies", "details": "target of 2nd generation personalized vaccines", "excerpt": "All the putative 8-20 amino acids long epitopes were created from these proteins and used for designing the 2nd generation of personalized vaccines according to the invention. […] These antigens have different length and amino acid sequences. All selected peptide antigen contains multiple highly ranked epitopes (13-66) presented on the cell surface by the patient's HLA class I and class II molecules. The range of the potency score is indicated for the selected epitopes. Epitopes presented by the patient's HLA class I and class II molecules are indicated to induce CD8 and CD4 responses, respectively. As described in the invention, the potency of each epitope in the vaccines was calculated and indicated to inform the physician about the predicted efficacy of the personalised vaccines in the recipient."}}, "note": "Entries after “also recorded” stand apart in the source; their conditions may differ. Where no end group is shown, it is not given here."}
{"molecule": "Fluoresc-KSSQYIKANSKFIGITEAAALNVPMVATV-NH2 (fluorescein-KSSQYIKANSKFIGITEAAALNVPMVATV-NH2) [peptide vaccines (CD4-CD8), control peptide vaccine lacking the R8 component, reference compound]", "values": [{"measurement": "cellular uptake", "setting": "[1]; 120 minutes", "value": "poorly detectable cellular uptake"}]}
{"molecule": "Fluoresc-KSSQYIKANSKFIGITERRRRRRRRLNVPMVATV-NH2 (fluorescein-KSSQYIKANSKFIGITERRRRRRRRLNVPMVATV-NH2) [vaccine (CD4-R8-CD8)]", "values": [{"measurement": "cellular uptake", "setting": "[1]; 120 minutes", "value": "diffuse distribution throughout the cytoplasm and nucleus"}, {"measurement": "cellular uptake compared to the control vaccines", "setting": "[1]; after 30 minutes and 120 minutes of incubation", "value": "substantial increase in the uptake"}, {"measurement": "cellular uptake", "setting": "[1]; within 30 minutes", "value": "rapid uptake into both the cytoplasm and nucleus"}]}
{"molecule": "Fluoresc-KSS-QYIKANSKFIGITE-RRRRRRRR-LNVPMVATV (fluorescein-KSSQYIKANSKFIGITERRRRRRRRLNVPMVATV)", "values": [{"measurement": "uptake in dendritic cells compared to the control vaccines", "setting": "[2]", "value": "substantial increase in the uptake; also recorded: exceptional uptake"}]}
{"molecule": "ATAD2 (protein, UniProt Q6PL18 1-1390, looked up) ATPase family AAA …: MVVLRSSLELHNHSAASATGSLDLSSDFLSLEHIGRRRLRSAGAAQKKPAATTAKAGDGSSVKEVETYHRTRALRSLRKDAQNSSDSSFEKNVEITEQLANGRHFTRQLARQQADKKKEEHREDKVIPVTRSLRARNIVQSTEHLHEDNGDVEVRRSCRIRSRYSGVNQSMLFDKLITNTAEAVLQKMDDMKKMRRQRMRELEDLGVFNETEESNLNMYTRGKQKDIQRTDEETTDNQEGSVESSEEGEDQEHEDDGEDEDDEDDDDDDDDDDDDDDEDDEDEEDGEEENQKRYYLRQRKATVYYQAPLEKPRHQRKPNIFYSGPASPARPRYRLSSAGPRSPYCKRMNRRRHAIHSSDSTSSSSSEDEQHFERRRKRSRNRAINRCLPLNFRKDELKGIYKDRMKIGASLADVDPMQLDSSVRFDSVGGLSNHIAALKEMVVFPLLYPEVFEKFKIQPPRGCLFYGPPGTGKTLVARALANECSQGDKRVAFFMRKGADCLSKWVGESERQLRLLFDQAYQMRPSIIFFDEIDGLAPVRSSRQDQIHSSIVSTLLALMDGLDSRGEIVVIGATNRLDSIDPALRRPGRFDREFLFSLPDKEARKEILKIHTRDWNPKPLDTFLEELAENCVGYCGADIKSICAEAALCALRRRYPQIYTTSEKLQLDLSSINISAKDFEVAMQKMIPASQRAVTSPGQALSTVVKPLLQNTVDKILEALQRVFPHAEFRTNKTLDSDISCPLLESDLAYSDDDVPSVYENGLSQKSSHKAKDNFNFLHLNRNACYQPMSFRPRILIVGEPGFGQGSHLAPAVIHALEKFTVYTLDIPVLFGVSTTSPEETCAQVIREAKRTAPSIVYVPHIHVWWEIVGPTLKATFTTLLQNIPSFAPVLLLATSDKPHSALPEEVQELFIRDYGEIFNVQLPDKEERTKFFEDLILKQAAKPPISKKKAVLQALEVLPVAPPPEPRSLTAEEVKRLEEQEEDTFRELRIFLRNVTHRLAIDKRFRVFTKPVDPDEVPDYVTVIKQPMDLSSVISKIDLHKYLTVKDYLRDIDLICSNALEYNPDRDPGDRLIRHRACALRDTAYAIIKEELDEDFEQLCEEIQESRKKRGCSSSKYAPSYYHVMPKQNSTLVGDKRSDPEQNEKLKTPSTPVACSTPAQLKRKIRKKSNWYLGTIKKRRKISQAKDDSQNAIDHKIESDTEETQDTSVDHNETGNTGESSVEENEKQQNASESKLELRNNSNTCNIENELEDSRKTTACTELRDKIACNGDASSSQIIHISDENEGKEMCVLRMTRARRSQVEQQQLITVEKALAILSQPTPSLVVDHERLKNLLKTVVKKSQNYNIFQLENLYAVISQCIYRHRKDHDKTSLIQKMEQEVENFSCSR", "values": [{"measurement": "Relative expression", "setting": "[3]", "value": 9}]}
